system: Acinetobacter baumannii ATCC17961; experiment: Antimicrobial susceptibility testing: 90% growth inhibitory concentration (IC90) determination; format: cell-based; settings: ATCC17961, 90% growth inhibitory concentration, Iso-Sensitest broth, OD 600 nm over 16 h, 35±2° C., read-out: ATCC 17961 IC90
Method: Assay Procedures Antimicrobial Susceptibility Testing: 90% Growth Inhibitory Concentration (IC90) Determination
The in vitro antimicrobial activity of the compounds was determined according to the following procedure:
The assay used a 10-points Iso-Sensitest broth medium to measure quantitatively the in vitro activity of the compounds against Acinetobacter baumannii ATCC17961.
Stock compounds in DMSO were serially twofold diluted (e.g. range from 50 to 0.097 μM final concentration) in 384 wells microtiter plates and inoculated with 49 μl the bacterial suspension in Iso-Sensitest medium to have a final cell concentration of ˜5×10^5 CFU/ml in a final volume/well of 50 μl/well. Microtiter plates were incubated at 35±2° C.
Bacterial cell growth was determined with the measurement of optical density at λ=600 nm each 20 minutes over a time course of 16 h. Growth inhibition was calculated during the logarithmic growth of the bacterial cells with determination of the concentration inhibiting 50% (IC50) and 90% (IC90) of the growth.
Table 1 provides the 90% growth inhibitory concentrations (IC90) in micromoles per liter of the compounds of present invention obtained against the strain Acinetobacter baumannii ATCC17961.

Compound	IC90 [µM]
CN(C)c1nc(F)c(-c2cnc(C(=O)Nc3ccc(C(=O)N4CCN(C(=O)C5CC[N+](C)(C)CC5)CC4)c(Cl)c3)n2C)cc1F [Example D4, N-[3-chloro-4-[4-(1,1-dimethylpiperidin-1-ium-4-carbonyl)piperazine-1-carbonyl]phenyl]-5-[6-(dimethylamino)-2,5-difluoro-3-pyridyl]-1-methyl-imidazole-2-carboxamide]	0.6
CN(C)c1nc(F)c(-c2cnc(C(=O)Nc3ccc(C(=O)N4CCN(C(=O)C5CC[N+](C)(C)C5)CC4)c(Cl)c3)n2C)cc1F (stereo not shown) [Example D5, N-[3-chloro-4-[4-(1,1-dimethylpyrrolidin-1-ium-3-carbonyl)piperazine-1-carbonyl]phenyl]-5-[6-(dimethylamino)-2,5-difluoro-3-pyridyl]-1-methyl-imidazole-2-carboxamide]	0.59
CN(C)c1nc(F)c(-c2cnc(C(=O)Nc3ccc(C(=O)N4CCN(C(=O)CC5CC[N+](C)(C)CC5)CC4)c(Cl)c3)n2C)cc1F [Example D7, N-[3-chloro-4-[4-[2-(1,1-dimethylpiperidin-1-ium-4-yl)acetyl]piperazine-1-carbonyl]phenyl]-5-[6-(dimethylamino)-2,5-difluoro-3-pyridyl]-1-methyl-imidazole-2-carboxamide]	0.76
CN(C)c1nc(F)c(-c2cnc(C(=O)Nc3ccc(C(=O)N4CCN(C(=O)C5CC(C[N+](C)(C)C)C5)CC4)c(Cl)c3)n2C)cc1F (stereo not shown) [Example D11, [3-[4-[2-chloro-4-[[5-[6-(dimethylamino)-2,5-difluoro-3-pyridyl]-1-methyl-imidazole-2-carbonyl]amino]benzoyl]piperazine-1-carbonyl]cyclobutyl]methyl-trimethyl-ammonium]	1.5
CN(C)c1nc(F)c(-c2cnc(C(=O)Nc3ccc(C(=O)NC4CCN(C(=O)[C@@H]5C[C@@H](O)C[N+]5(C)C)CC4)c(Cl)c3)n2C)cc1F [Example D12, N-[3-chloro-4-[[1-[(2S,4R)-4-hydroxy-1,1-dimethyl-pyrrolidin-1-ium-2-carbonyl]-4-piperidyl]carbamoyl]phenyl]-5-[6-(dimethylamino)-2,5-difluoro-3-pyridyl]-1-methyl-imidazole-2-carboxamide]	2.8
CN(C)c1nc(F)c(-c2cnc(C(=O)Nc3ccc(C(=O)N4CCC(C(=O)NC5CC[N+](C)(C)C5)CC4)c(Cl)c3)n2C)cc1F (stereo not shown) [Example D13, 1-[2-chloro-4-[[5-[6-(dimethylamino)-2,5-difluoro-3-pyridyl]-1-methyl-imidazole-2-carbonyl]amino]benzoyl]-N-(1,1-dimethylpyrrolidin-1-ium-3-yl)piperidine-4-carboxamide]	0.73
CNc1nc(F)c(-c2cnc(C(=O)Nc3ccc(C(=O)N4CCN(C(=O)C5CCNCC5)CC4)c(Cl)c3)n2C)cc1F [Example E1, N-[3-chloro-4-[4-(piperidine-4-carbonyl)piperazine-1-carbonyl]phenyl]-5-[2,5-difluoro-6-(methylamino)-3-pyridyl]-1-methyl-imidazole-2-carboxamide]	1.2
CN(C)c1nc(F)c(-c2cnc(C(=O)Nc3ccc(C(=O)N4CCN(C(=O)C5CCNCC5)CC4)c(Cl)c3)n2C)cc1F [Example E2, N-[3-chloro-4-[4-(piperidine-4-carbonyl)piperazine-1-carbonyl]phenyl]-5-[6-(dimethylamino)-2,5-difluoro-3-pyridyl]-1-methyl-imidazole-2-carboxamide]	0.19
CN(C)c1ccc(-c2cnc(C(=O)Nc3ccc(C(=O)N4CCN(C(=O)C5CCNCC5)CC4)c(Cl)c3)n2C)c(F)n1 [Example E3, N-[3-chloro-4-[4-(piperidine-4-carbonyl)piperazine-1-carbonyl]phenyl]-5-[6-(dimethylamino)-2-fluoro-3-pyridyl]-1-methyl-imidazole-2-carboxamide]	0.47
Cc1nc(N(C)C)ccc1-c1cnc(C(=O)Nc2ccc(C(=O)N3CCN(C(=O)C4CCNCC4)CC3)c(Cl)c2)n1C [Example E4, N-[3-chloro-4-[4-(piperidine-4-carbonyl)piperazine-1-carbonyl]phenyl]-5-[6-(dimethylamino)-2-methyl-3-pyridyl]-1-methyl-imidazole-2-carboxamide]	1.4
CN(C)c1ccc(-c2cnc(C(=O)Nc3ccc(C(=O)N4CCN(C(=O)C5CCNCC5)CC4)c(Cl)c3)n2C)c(Cl)n1 [Example E5, 5-[2-chloro-6-(dimethylamino)-3-pyridyl]-N-[3-chloro-4-[4-(piperidine-4-carbonyl)piperazine-1-carbonyl]phenyl]-1-methyl-imidazole-2-carboxamide]	0.47

Further lines, results first:

IC90 [µM]	Compound
0.27	CN(C)c1nc(F)c(-c2cnc(C(=O)Nc3ccc(C(=O)N4CCN(C(=O)C5(O)CCNCC5)CC4)c(Cl)c3)n2C)cc1F [Example F1, N-[3-chloro-4-[4-(4-hydroxypiperidine-4-carbonyl)piperazine-1-carbonyl]phenyl]-5-[6-(dimethylamino)-2,5-difluoro-3-pyridyl]-1-methyl-imidazole-2-carboxamide]
0.23	CN(C)c1nc(F)c(-c2cnc(C(=O)Nc3ccc(C(=O)N4CCN(C(=O)C[C@@H]5CCNC5)CC4)c(Cl)c3)n2C)cc1F [Example F2, N-[3-chloro-4-[4-[2-[(3S)-pyrrolidin-3-yl]acetyl]piperazine-1-carbonyl]phenyl]-5-[6-(dimethylamino)-2,5-difluoro-3-pyridyl]-1-methyl-imidazole-2-carboxamide]
0.43	CN(C)c1nc(F)c(-c2cnc(C(=O)Nc3ccc(C(=O)N4CCN(C(=O)CC5(O)CCNCC5)CC4)c(Cl)c3)n2C)cc1F [Example F3, N-[3-chloro-4-[4-[2-(4-hydroxy-4-piperidyl)acetyl]piperazine-1-carbonyl]phenyl]-5-[6-(dimethylamino)-2,5-difluoro-3-pyridyl]-1-methyl-imidazole-2-carboxamide]
0.74	CN(C)c1nc(F)c(-c2cnc(C(=O)Nc3ccc(C(=O)N4CCN(C(=O)C5CCNC5)CC4)c(Cl)c3)n2C)cc1F (stereo not shown) [Example F4, N-[3-chloro-4-[4-(pyrrolidine-3-carbonyl)piperazine-1-carbonyl]phenyl]-5-[6-(dimethylamino)-2,5-difluoro-3-pyridyl]-1-methyl-imidazole-2-carboxamide]
0.66	CN(C)c1nc(F)c(-c2cnc(C(=O)Nc3ccc(C(=O)N4CCN(C(=O)CC5CCNCC5)CC4)c(Cl)c3)n2C)cc1F [Example F6, N-[3-chloro-4-[4-[2-(4-piperidyl)acetyl]piperazine-1-carbonyl]phenyl]-5-[6-(dimethylamino)-2,5-difluoro-3-pyridyl]-1-methyl-imidazole-2-carboxamide]
0.39	CN(C)c1nc(F)c(-c2cnc(C(=O)Nc3ccc(C(=O)N4CCN(C(=O)C5CC(CN)C5)CC4)c(Cl)c3)n2C)cc1F (stereo not shown) [Example F7, N-[4-[4-[3-(aminomethyl)cyclobutanecarbonyl]piperazine-1-carbonyl]-3-chloro-phenyl]-5-[6-(dimethylamino)-2,5-difluoro-3-pyridyl]-1-methyl-imidazole-2-carboxamide]
1.9	CN(C)c1nc(F)c(-c2cnc(C(=O)Nc3ccc(C(=O)NC4CCN(C(=O)[C@@H]5C[C@@H](O)CN5)CC4)c(Cl)c3)n2C)cc1F [Example F9, N-[3-chloro-4-[[1-[(2S,4R)-4-hydroxypyrrolidine-2-carbonyl]-4-piperidyl]carbamoyl]phenyl]-5-[6-(dimethylamino)-2,5-difluoro-3-pyridyl]-1-methyl-imidazole-2-carboxamide]
0.64	CN(C)c1nc(F)c(-c2cnc(C(=O)Nc3ccc(C(=O)N4CCC(C(=O)NC5CCNC5)CC4)c(Cl)c3)n2C)cc1F (stereo not shown) [Example F10, 1-[2-chloro-4-[[5-[6-(dimethylamino)-2,5-difluoro-3-pyridyl]-1-methyl-imidazole-2-carbonyl]amino]benzoyl]-N-pyrrolidin-3-yl-piperidine-4-carboxamide]

same assay, conditions: ATCC17961, 16 h, read-out: ATCC 17961 IC90 [μM]

Compound	IC90 [µM]
CN(C)c1nc(F)c(-c2cnc(C(=O)Nc3ccc(C(=O)NC4CC(NC(=O)C[N+](C)(C)C)C4)c(Cl)c3)n2C)cc1F (stereo not shown) [Example D8, [2-[[3-[[2-chloro-4-[[5-[6-(dimethylamino)-2,5-difluoro-3-pyridyl]-1-methyl-imidazole-2-carbonyl]amino]benzoyl]amino]cyclobutyl]amino]-2-oxo-ethyl]-trimethyl-ammonium]	2.7
CN(C)c1nc(F)c(-c2cnc(C(=O)Nc3ccc(C(=O)N4CCC(NC(=O)C[N+](C)(C)C)CC4)c(Cl)c3)n2C)cc1F [Example D9, [2-[[1-[2-chloro-4-[[5-[6-(dimethylamino)-2,5-difluoro-3-pyridyl]-1-methyl-imidazole-2-carbonyl]amino]benzoyl]-4-piperidyl]amino]-2-oxo-ethyl]-trimethyl-ammonium]	1.6
CN(C)c1nc(F)c(-c2cnc(C(=O)Nc3ccc(C(=O)NC4CCN(C(=O)CCOCC[N+](C)(C)C)CC4)c(Cl)c3)n2C)cc1F [Example D10, 2-[3-[4-[[2-chloro-4-[[5-[6-(dimethylamino)-2,5-difluoro-3-pyridyl]-1-methyl-imidazole-2-carbonyl]amino]benzoyl]amino]-1-piperidyl]-3-oxo-propoxy]ethyl-trimethyl-ammonium]	5.6
